Results: patent US20170355705A1 (GlaxoSmithKline Intellectual Property (No.2) Limited, priority 2014, published 2017)

Molecular target: T1, SIRT1 (Homo sapiens, UniProt Q96EB6)
T1 sequence (Q96EB6 1-747): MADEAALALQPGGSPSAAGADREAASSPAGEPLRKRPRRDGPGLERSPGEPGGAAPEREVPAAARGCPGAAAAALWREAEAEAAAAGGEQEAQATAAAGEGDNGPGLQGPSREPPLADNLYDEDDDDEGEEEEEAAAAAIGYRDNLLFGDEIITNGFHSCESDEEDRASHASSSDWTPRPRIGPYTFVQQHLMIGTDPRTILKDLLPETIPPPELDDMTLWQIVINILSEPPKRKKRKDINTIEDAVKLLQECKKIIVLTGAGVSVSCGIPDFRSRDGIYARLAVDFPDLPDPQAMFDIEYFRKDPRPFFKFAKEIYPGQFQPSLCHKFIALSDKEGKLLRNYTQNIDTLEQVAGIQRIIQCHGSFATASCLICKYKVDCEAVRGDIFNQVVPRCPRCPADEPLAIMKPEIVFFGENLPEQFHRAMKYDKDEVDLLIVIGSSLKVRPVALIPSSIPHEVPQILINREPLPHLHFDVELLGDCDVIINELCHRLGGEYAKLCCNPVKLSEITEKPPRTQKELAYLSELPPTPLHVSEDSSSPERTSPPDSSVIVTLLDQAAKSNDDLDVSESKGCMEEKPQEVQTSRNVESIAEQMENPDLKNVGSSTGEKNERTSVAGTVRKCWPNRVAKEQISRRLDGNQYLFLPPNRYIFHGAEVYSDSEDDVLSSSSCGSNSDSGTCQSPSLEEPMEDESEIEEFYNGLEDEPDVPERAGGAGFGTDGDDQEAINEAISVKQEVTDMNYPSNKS
Experiment: Trp mass spectrometry assay of SIRT1 activity (EC1.5, percent maximum activation)
Assay type: biochemical
Settings: Trp mass spectrometry assay; for TRP Activity (EC1.5): EC1.5 = concentration giving 150% activation of SIRT1
In short: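 MS readout: O-acetyl-ADP-ribose (or deacetylated peptide) formed by His-tagged SIRT1 (BL21(DE3)-expressed) on 5TMR-Trp p53-based peptide, 25 min, formic acid stop. EC1.5 = concentration raising activity 50% over no-compound control; % max activation vs control = 100%.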

[1] = percent maximum activation of SIRT1
[2] = 0.5 μM peptide substrate, 120 μM βNAD+, 10 nM SIRT1, 25 minutes at 25° C.

| TRP Activity (EC1.5) | TRP MAX RESP (percent maximum fold activation) [1] | TRP MAX RESP (percent maximum fold activation) [2] | TRP Activity (EC1.5, concentration of test compound that results in 150% activation of SIRT1) [2] | SMILES |
| --- | --- | --- | --- | --- |
| B (EC1.5 1-25 μM) | A (Fold activation ≧150%) |  |  | O=C(Nc1cnccn1)N1c2nc(N3CCCCC3)ccc2N2CC[C@H]1C2 [Example 181, (4S)-7-(piperidin-1-yl)-N-(pyrazin-2-yl)-3,4-dihydro-1,4-methanopyrido[2,3-b][1,4]diazepine-5(2H)-carboxamide] |
|  |  | A (Fold activation ≧150%) |  | Cc1cc(-c2ccc3c(n2)N(C(=O)Nc2cc(N4C[C@@H](C)O[C@@H](C)C4)ccn2)[C@H]2CCN3C2)ccn1 [Example 356] |
|  |  | A (Fold activation ≧150%) | B (EC1.5 1-25 μM) | COC(=O)c1cc(-c2ccc3c(n2)N(C(=O)Nc2cnccn2)[C@H]2CCN3C2)ccn1 [Example 215, methyl 4-((4S)-5-(pyrazin-2-ylcarbamoyl)-2,3,4,5-tetrahydro-1,4-methanopyrido[2,3-b][1,4]diazepin-7-yl)picolinate] |
|  |  | A (Fold activation ≧150%) | B (EC1.5 1-25 μM) | Cc1cc(-c2ccc3c(n2)N(C(=O)Nc2cnccn2)[C@H]2CCN3C2)c(F)cn1 [Example 217, (4S)-7-(5-fluoro-2-methylpyridin-4-yl)-N-(pyrazin-2-yl)-3,4-dihydro-1,4-methanopyrido[2,3-b][1,4]diazepine-5(2H)-carboxamide] |
| C (EC1.5>25 μM) | B (Fold Activation <150%) |  |  | O=C(Nc1cnccn1)N1c2nc(N3CCNCC3)ccc2N2CC[C@H]1C2 [Example 197, (4S)-7-(piperazin-1-yl)-N-(pyrazin-2-yl)-3,4-dihydro-1,4-methanopyrido[2,3-b][1,4]diazepine-5(2H)-carboxamide] |
|  |  | B (Fold Activation <150%) | C (EC1.5>25 μM) | CC1CNCCN1c1ccc2c(n1)N(C(=O)Nc1cnccn1)[C@H]1CCN2C1 (single isomer, unassigned) [Example 228] |

Further lines, the compound ahead of its results:

| SMILES | TRP Activity (EC1.5) | TRP MAX RESP (percent maximum fold activation) [1] | TRP MAX RESP (percent maximum fold activation) [2] | TRP Activity (EC1.5, concentration of test compound that results in 150% activation of SIRT1) [2] |
| --- | --- | --- | --- | --- |
| Cc1cc(-c2nc3c(cc2C)N2CC[C@@H](C2)N3C(=O)Nc2ccccn2)ccn1 [Example 36, (4S)-8-methyl-7-(2-methylpyridin-4-yl)-N-(pyridin-2-yl)-3,4-dihydro-1,4-methanopyrido[2,3-b][1,4]diazepine-5(2H)-carboxamide] | B (EC1.5 1-25 μM) | A (Fold activation ≧150%) |  |  |
| Cc1cc(-c2nc3c(cc2Cl)N2CC[C@@H](C2)N3C(=O)Nc2ccnc(OC[C@@H](O)CO)n2)ccn1 [Example 94, (4S)-8-chloro-N-(2-((S)-2,3-dihydroxypropoxy)pyrimidin-4-yl)-7-(2-methylpyridin-4-yl)-3,4-dihydro-1,4-methanopyrido[2,3-b][1,4]diazepine-5(2H)-carboxamide] | C (EC1.5>25 μM) | B (Fold Activation <150%) |  |  |
| O=C(Nc1cncc(OCCCO)n1)N1c2nc(-c3cccc(C(F)(F)F)c3)c(Cl)cc2N2CC[C@H]1C2 [Example 73, (4S)-8-chloro-N-(6-(3-hydroxypropoxy)pyrazin-2-yl)-7-(3-(trifluoromethyl)phenyl)-3,4-dihydro-1,4-methanopyrido[2,3-b][1,4]diazepine-5(2H)-carboxamide] | A (EC1.5<1 μM) | A (Fold activation ≧150%) |  |  |
| Cc1cc(-c2nc3c(cc2Cl)N2CC[C@@H](C2)N3C(=O)Nc2cnc(OC[C@@H](O)CO)cn2)ccn1 [Example 40, (4S)-8-chloro-N-(5-((S)-2,3-dihydroxypropoxy)pyrazin-2-yl)-7-(2-methylpyridin-4-yl)-3,4-dihydro-1,4-methanopyrido[2,3-b][1,4]diazepine-5(2H)-carboxamide] | B (EC1.5 1-25 μM) | A (Fold activation ≧150%) |  |  |
| Cc1ccc(-c2nc3c(cc2C(F)(F)F)N2CC[C@@H](C2)N3C(=O)Nc2cccnc2)cn1 [Example 1, (4S)-7-(6-methylpyridin-3-yl)-N-(pyridin-3-yl)-8-(trifluoromethyl)-3,4-dihydro-1,4-methanopyrido[2,3-b][1,4]diazepine-5(2H)-carboxamide] | C (EC1.5>25 μM) | B (Fold Activation <150%) |  |  |
| CC(C)(CO)COc1cccc(NC(=O)N2c3nc(-c4cccc(C(F)(F)F)c4)c(Cl)cc3N3CC[C@H]2C3)n1 [Example 49, (4S)-8-chloro-N-(6-(3-hydroxy-2,2-dimethylpropoxy)pyridin-2-yl)-7-(3-(trifluoromethyl)phenyl)-3,4-dihydro-1,4-methanopyrido[2,3-b][1,4]diazepine-5(2H)-carboxamide] | B (EC1.5 1-25 μM) | A (Fold activation ≧150%) |  |  |
| Cc1cc(-c2nc3c(cc2Cl)N2CC[C@@H](C2)N3C(=O)Nc2cncc(OC[C@@H](O)CO)n2)ccn1 [Example 98, (4S)-8-chloro-N-(6-((S)-2,3-dihydroxypropoxy)pyrazin-2-yl)-7-(2-methylpyridin-4-yl)-3,4-dihydro-1,4-methanopyrido[2,3-b][1,4]diazepine-5(2H)-carboxamide] | C (EC1.5>25 μM) | B (Fold Activation <150%) |  |  |
| Cc1cc(-c2nc3c(cc2Cl)N2CC[C@@H](C2)N3C(=O)Nc2ccnc(OC[C@H](O)CO)c2)ccn1 [Example 39, (4S)-8-chloro-N-(2-((R)-2,3-dihydroxypropoxy)pyridin-4-yl)-7-(2-methylpyridin-4-yl)-3,4-dihydro-1,4-methanopyrido[2,3-b][1,4]diazepine-5(2H)-carboxamide] | B (EC1.5 1-25 μM) | A (Fold activation ≧150%) |  |  |
| O=C(Nc1ccc(OC[C@@H](O)CO)cn1)N1c2nc(-c3cccc(C(F)(F)F)c3)c(Cl)cc2N2CC[C@H]1C2 [Example 81, (4S)-8-chloro-N-(5-((S)-2,3-dihydroxypropoxy)pyridin-2-yl)-7-(3-(trifluoromethyl)phenyl)-3,4-dihydro-1,4-methanopyrido[2,3-b][1,4]diazepine-5(2H)-carboxamide] | B (EC1.5 1-25 μM) | A (Fold activation ≧150%) |  |  |
| O=C(Nc1ccccn1)N1c2nc(N3CCC[C@H]3C(F)(F)F)ccc2N2CC[C@H]1C2 [Example 120, (4S)-N-(pyridin-2-yl)-7-((S)-2-(trifluoromethyl)pyrrolidin-1-yl)-3,4-dihydro-1,4-methanopyrido[2,3-b][1,4]diazepine-5(2H)-carboxamide] | B (EC1.5 1-25 μM) | A (Fold activation ≧150%) |  |  |
| O=C(Nc1ccnc(OC[C@@H](O)CO)n1)N1c2nc(-c3cccc(C(F)(F)F)c3)c(Cl)cc2N2CC[C@H]1C2 [Example 30, (4S)-8-chloro-N-(2-((S)-2,3-dihydroxypropoxy)pyrimidin-4-yl)-7-(3-(trifluoromethyl)phenyl)-3,4-dihydro-1,4-methanopyrido[2,3-b][1,4]diazepine-5(2H)-carboxamide] | A (EC1.5<1 μM) | A (Fold activation ≧150%) |  |  |
| O=C(Nc1cnccn1)N1c2nc(N3CCOC(C4CC4)C3)ccc2N2CC[C@H]1C2 (stereo partly shown) |  |  | A (Fold activation ≧150%) |  |
